Assays:
MM1S cells = test: Cell growth inhibition, CellTiter-Glo, 72 h; assay type: cell-based; conditions: 72 h culture, mean of N=2
Method in brief: (§1)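 Cells seeded at 5×10^3/well in RPMI-1640 with 10% FBS, compound added next day at 0.5% DMSO final, 72 h at 37°C. CellTiter-Glo luminescence read; % inhibition normalised to 0.5% DMSO (0%) and 1% Tween 20 (100%), plotted against concentration in nM; mean ± SEM, N=2.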

OPM-2 cells = test: Cell growth inhibition, CellTiter-Glo, 72 h; assay type: cell-based; conditions: Homo sapiens, 72 h culture, mean of N=2
Method in brief: as §1

vCap cells = test: Cell growth inhibition, CellTiter-Glo, 72 h; assay type: cell-based; conditions: Homo sapiens, 72 h culture, mean of N=2
Method in brief: as §1

22RV1 cells = test: Cell growth inhibition, CellTiter-Glo, 72 h; assay type: cell-based; conditions: Homo sapiens, 72 h culture, mean of N=2
Method in brief: as §1

BRD4 = BRD4 (Homo sapiens, UniProt O60885); test: BRD4 counter-assay, tabulated with the CBP AlphaLISA test; assay type: binding; conditions: unit inferred
CBP bromodomain = target: T1, CBP bromodomain (Homo sapiens, UniProt Q92793); test: CBP AlphaLISA Assay Kit: binding of CBP bromodomain to acetylated histone substrate; conditions: 30 min incubation with CBP and biotinylated substrate, N=2, unit inferred
T1 construct: purchased
T1 sequence (Q92793 1085-1192 limits assumed): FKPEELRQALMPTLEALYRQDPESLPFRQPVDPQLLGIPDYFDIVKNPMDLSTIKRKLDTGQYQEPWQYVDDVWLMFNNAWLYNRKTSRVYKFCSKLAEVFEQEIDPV
Description: The biochemical activity test of CBP preparations was detected using CBP AlphaLISA® Assay Kit. The detection principle is based on the binding of CBP bromodomain to acetylated histone substrate. The compounds were incubated with CBP and biotinylated substrate for 30 min, followed by the addition of acceptor beads for 15 min and donor beads for 15 min. Alpha counts were read, data were analyzed using Prism 7.0 and IC50 values were calculated.

Row | SMILES | IC50 (vCap cells) [nM] | IC50 (22RV1 cells) [nM] | IC50 (CBP bromodomain) [nM] | IC50 (MM1S cells; Homo sapiens, MM1.S) [nM] | IC50 (MM1S cells) [nM] | IC50 (OPM-2 cells) [nM] | IC50 (BRD4) [µM]
1 | CO[C@H]1CC[C@H](n2c([C@@H]3CCCC(=O)N3c3ccc(F)c(F)c3)nc3cc(-c4c(C)noc4C)ccc32)CC1 [CCS1477] | 140 | 2520 |  |  | 220 | 37 | 7.25
2 | C=CC(=O)N[C@H]1CC[C@@H](c2cc3c(c(N4CCCc5cc(-c6cnn(C)c6)c(C(F)F)cc54)c2)CN(C(C)=O)C3)CC1 [Compound 1339] |  | 2500 | 4.7 | 48 |  | 8 | 7.43
3 | C=CS(=O)(=O)N[C@H]1CC[C@H](c2cc3c(c(N4CCCc5cc(-c6cnn(C)c6)c(C(F)F)cc54)c2)CN(C(C)=O)C3)CC1 [Compound 1343] |  | 205 | 7.5 | 39 |  | 8 | 7.88
4 | CC(=O)N1Cc2cc(C3CCN(C(=O)/C=C/CN(C)C)CC3)cc(N3CCCc4cc(-c5cnn(C)c5)c(C(F)F)cc43)c2C1 [Compound 1357] |  | 5420 | 0.96 | 58 |  |  | 5.71
5 | C=CS(=O)(=O)N1CCC(n2nc(N3CCCc4cc(-c5cnn(C)c5)c(C(F)F)cc43)c3c2CCN(C(=O)NC)C3)CC1 [Compound 1369, 3-(7-(difluoromethyl)-6-(1-methyl-1H-pyrazol-4-yl)-3,4-dihydroquinolin-1(2H)-yl)-N-methyl-1-(1-(vinylsulfonyl)piperidin-4-yl)-1,4,6,7-tetrahydro-5H-pyrazolo[4,3-c]pyridine-5-carboxamide] | 1 | 4 |  | 1 |  | 0.4 | 
6 | C=CS(=O)(=O)N1CCC(n2c([C@@H]3CCCC(=O)N3c3ccc(F)c(F)c3)nc3cc(-c4c(C)noc4C)ccc32)CC1 [Compound 1373, (S)-1-(3,4-difluorophenyl)-6-(5-(3,5-dimethylisoxazol-4-yl)-1-(1-(vinylsulfonyl)piperidin-4-yl)-1H-benzo[d]imidazol-2-yl)piperidin-2-one] | 51 | 208 |  | 44 |  | 12 | 
7 | C=CS(=O)(=O)N[C@H]1CC[C@H](n2nc(N3CCCc4cc(-c5cnn(C)c5)c(C(F)F)cc43)c3c2CCN(C(=O)NC)C3)CC1 [Compound 1374, 3-(7-(difluoromethyl)-6-(1-methyl-1H-pyrazol-4-yl)-3,4-dihydroquinolin-1(2H)-yl)-N-methyl-1-((1r,4r)-4-(vinylsulfonamido)cyclohexyl)-1,4,6,7-tetrahydro-5H-pyrazolo[4,3-c]pyridine-5-carboxamide] | 1 | 11 |  | 1 |  | 1 | 
8 | C=CS(=O)(=O)N[C@H]1CC[C@H](n2nc(N3CCCc4cc(-c5cnn(C)c5)c(C(F)F)cc43)c3c2CCN(C(C)=O)C3)CC1 [Compound 1387, N-((1r,4r)-4-(5-acetyl-3-(7-(difluoromethyl)-6-(1-methyl-1H-pyrazol-4-yl)-3,4-dihydroquinolin-1(2H)-yl)-4,5,6,7-tetrahydro-1H-pyrazolo[4,3-c]pyridin-1-yl)cyclohexyl)ethenesulfonamide] | 3 | 18 |  | 3 |  | 1 | 
9 | C=CS(=O)(=O)N[C@H]1CC[C@@H](n2nc(N3CCCc4cc(-c5cnn(C)c5)c(C(F)F)cc43)c3c2CCN(C(C)=O)C3)CC1 [Compound 1388, N-((1s,4s)-4-(5-acetyl-3-(7-(difluoromethyl)-6-(1-methyl-1H-pyrazol-4-yl)-3,4-dihydroquinolin-1(2H)-yl)-4,5,6,7-tetrahydro-1H-pyrazolo[4,3-c]pyridin-1-yl)cyclohexyl)ethenesulfonamide] | 2 | 15 |  | 3 |  | 1 | 
10 | CNC(=O)N1CCc2cc(C3CCN(C(=O)CCCCCCCCNc4ccc5c(c4)n(C)c(=O)n5C4CCC(=O)NC4=O)CC3)cc(N3CCCc4cc(-c5cnn(C)c5)c(C(F)F)cc43)c2C1 (stereo not shown) [Compound 2018] | < 0.005 | 0.01 |  | 0.1 |  | 0.05 | 
11 | CC(=O)N1Cc2cc(C3CCN(CC4CCN(c5ccc6c(c5)CN(C5CCC(=O)NC5=O)C6=O)CC4)CC3)cc(N3CCCc4cc(-c5cnn(C)c5)c(C(F)F)cc43)c2C1 (stereo not shown) [Compound 2058] | 0.29 | 0.31 |  | 0.3 |  | 0.23 | 
12 | CC(=O)N1Cc2cc(C3CCN(CC4CCN(c5ccc6c(c5)n(C)c(=O)n6C5CCC(=O)NC5=O)CC4)CC3)cc(N3CCCc4cc(-c5cnn(C)c5)c(C(F)F)cc43)c2C1 (stereo not shown) [Compound 2068] | 0.07 | 0.06 |  | 0.07 |  | 0.04 | 
13 | CC(=O)N1Cc2cc(C3CCN(CC4CCN(c5ccc6c(c5)C(=O)N(C5CCC(=O)NC5=O)C6=O)CC4)CC3)cc(N3CCCc4cc(-c5cnn(C)c5)c(C(F)F)cc43)c2C1 (stereo not shown) [Compound 2085] | 2 | 4 |  | 2 |  | 2 | 

More lines, main results first:

Row | IC50 (vCap cells) [nM] | IC50 (22RV1 cells) [nM] | IC50 (CBP bromodomain) [nM] | IC50 (MM1S cells; Homo sapiens, MM1.S) [nM] | SMILES | IC50 (MM1S cells) [nM] | IC50 (OPM-2 cells) [nM] | IC50 (BRD4) [µM]
14 | 2 | 16 |  | 2 | C=CS(=O)(=O)N[C@H]1CC[C@@H](n2nc(N3CCCc4cc(-c5cnn(C)c5)c(C(F)F)cc43)c3c2CCN(C(=O)NC)C3)CC1 [Compound 1375, 3-(7-(difluoromethyl)-6-(1-methyl-1H-pyrazol-4-yl)-3,4-dihydroquinolin-1(2H)-yl)-N-methyl-1-((1s,4s)-4-(vinylsulfonamido)cyclohexyl)-1,4,6,7-tetrahydro-5H-pyrazolo[4,3-c]pyridine-5-carboxamide] |  | 1 | 
15 | 0.5 | 4 |  | 0.3 | CNC(=O)N1CCc2c(c(N3CCCc4cc(-c5cnn(C)c5)c(C(F)F)cc43)nn2C2CCN(C(=O)CCl)CC2)C1 [Compound 1377, 1-(1-(2-chloroacetyl)piperidin-4-yl)-3-(7-(difluoromethyl)-6-(1-methyl-1H-pyrazol-4-yl)-3,4-dihydroquinolin-1(2H)-yl)-N-methyl-1,4,6,7-tetrahydro-5H-pyrazolo[4,3-c]pyridine-5-carboxamide] |  | 0.2 | 
16 | 3 | 10 |  | 3 | C=CS(=O)(=O)N1CCC(n2nc(N3CCCc4cc(-c5cnn(C)c5)c(C5CC5)cc43)c3c2CCN(C(=O)NC)C3)CC1 [Compound 1378, 3-[7-cyclopropyl-6-(1-methylpyrazol-4-yl)-3,4-dihydro-2H-quinolin-1-yl]-1-(1-(vinylsulfonyl)piperidin-4-yl)-N-methyl-4H,6H,7H-pyrazolo[4,3-c]pyridine-5-carboxamide] |  | 2 | 
17 | 8 | 28 |  | 5 | C=CS(=O)(=O)N1CCC(n2nc(N3CCCc4cc(-c5cnn(C)c5)c(C#N)cc43)c3c2CCN(C(=O)NC)C3)CC1 [Compound 1379, 3-[7-cyano-6-(1-methylpyrazol-4-yl)-3,4-dihydro-2H-quinolin-1-yl]-1-[1-(vinylsulfonyl)piperidin-4-yl]-N-methyl-4H,6H,7H-pyrazolo[4,3-c]pyridine-5-carboxamide] |  | 5 | 
18 | 108 | 496 |  | 122 | CNC(=O)N1CCc2c(c(N3CCCc4cc(-c5cnn(C)c5)c(C(F)F)cc43)nn2[C@H]2CC[C@H](N3C(=O)C=CC3=O)CC2)C1 [Compound 1383, 3-(7-(difluoromethyl)-6-(1-methyl-1H-pyrazol-4-yl)-3,4-dihydroquinolin-1(2H)-yl)-1-((1r,4r)-4-(2,5-dioxo-2,5-dihydro-1H-pyrrol-1-yl)cyclohexyl)-N-methyl-1,4,6,7-tetrahydro-5H-pyrazolo[4,3-c]pyridine-5-carboxamide] |  | 63 | 
19 | 191 | 438 |  | 117 | C=CS(=O)(=O)N1CCC(c2cc3c(c(N4CCCc5cc(-c6cnn(C)c6)c(C(F)F)cc54)c2)CN(C(=O)NC)C3)CC1 [Compound 1391, 4-(7-(difluoromethyl)-6-(1-methyl-1H-pyrazol-4-yl)-3,4-dihydroquinolin-1(2H)-yl)-N-methyl-6-(1-(vinylsulfonyl)piperidin-4-yl)isoindoline-2-carboxamide] |  | 33 | 
20 | 0.4 | 0.47 |  | 0.27 | CC(=O)N1Cc2cc(C3CCN(Cc4ccc(COc5cccc6c5CN(C5CCC(=O)NC5=O)C6=O)cc4)CC3)cc(N3CCCc4cc(-c5cnn(C)c5)c(C(F)F)cc43)c2C1 (stereo not shown) [Compound 2006, 3-[4-({4-[(4-{2-acetyl-7-[7-(difluoromethyl)-6-(1-methylpyrazol-4-yl)-3,4-dihydro-2H-quinolin-1-yl]-1 ,3-dihydroisoindol-5-yl}piperidin-1-yl)methyl]phenyl}methoxy)-1-oxo-3H-isoindol-2-yl]piperidine-2,6-dione] |  | 0.19 | 
21 | 1.17 | 3.97 |  | 1.16 | CC(=O)N1Cc2cc(C3CCN(c4cccc5c4CN(C4CCC(=O)NC4=O)C5=O)CC3)cc(N3CCCc4cc(-c5cnn(C)c5)c(C(F)F)cc43)c2C1 (stereo not shown) [Compound 2080, 3-[4-(4-{2-acetyl-7-[7-(difluoromethyl)-6-(1-methylpyrazol-4-yl)-3,4-dihydro-2H-quinolin-1-yl]-1,3-dihydroisoindol-5-yl}piperidin-1-yl)-1-oxo-3H-isoindol-2-yl]piperidine-2,6-dione] |  | 0.52 | 
22 | 2150 | 4240 |  | 104 | CNC(=O)N1CCc2c(c(N3CCCc4cc(-c5cnn(C)c5)c(C(F)F)cc43)nn2C2CCOCC2)C1 [GNE-781] |  | 8 | 

From patent EP4813980A1, “EP300/CBP REGULATOR, AND PREPARATION METHOD THEREFOR AND USE THEREOF” (Miracure Biotechnology Limited, priority 2023, dated 2025)
